“And” between values parts separate entries of the source, which are not always exact repeats. Equal entries are not always repeated.
Key:
[1] = Stability in primary rat hepatocytes
Method: Primary rat hepatocytes were isolated from 12-weeks-old male Wistar rats (n = 3) by two-step collagenase liver perfusion. Tribromoethanol was used as an anesthetic agent at a dose of 250 mg kg^−1. […] Flow rate was maintained at 7 mL min^−1, and all solutions were kept at 37 °C. After in situ perfusion, the liver was excised, the liver capsule was opened, and cells were suspended in William's Medium E and filtered through a 70 µm membrane. Dead cells were removed by Percoll centrifugation (Percoll density: 1.06 g mL^−1, 50×g, 10 min, 20 °C) and additional centrifugation in William's Medium E (50×g, 5 min). Cells were subsequently diluted in William's Medium E, and their viability and cell suspension density were determined by Trypan Blue exclusion using a hemocytometer. […] Aliquots (50 µL) of the hepatocyte suspension were added to each test well of a 96-well plate, immediately followed by the addition of a 50 µL aliquot of the test compound or control solutions (final hepatocyte density – 0.5 × 10^6 mL^−1). […] At appropriate time-points, 40 µL aliquots were removed from the wells and placed in 1.1 mL microtubes containing 200 µL of methanol and used for LC-MS/MS analysis.
Elimination constant (kel), half-life (t1/2), and intrinsic clearance (CLint) were determined in plots of ln (percent remaining of parent compound) versus time, using linear regression analysis: k = −slope [drawing 6] [drawing 7]

in vitro = settings: pH 7.4
Method: Permeability was quantified using permeability coefficients (Pe) and mass retention, the latter representing the proportion of compound retained in the membrane.
Permeation experiments were conducted in polystyrene 96-well filter plates with PVDF membrane pre-coated with structured layers of phospholipids (Corning Gentest™) according to the manufacturer's instructions. Briefly, the plate was warmed to room temperature, and meanwhile, the solutions of the compounds were diluted from 10 mM DMSO stocks to TRIS–HCl buffer pH 7.4 to reach a 100 µM final concentration. The DMSO concentration in the samples was 1%. Then, 300 µL of these solutions were transferred into the donor (receiver) plate wells, and 200 µL of the (TRIS) buffer was added to the acceptor (filter) plate wells. The filter plate and receiver plate were assembled and incubated for 5 h on an orbital shaker (300 rpm). After this, the concentration of the tested substances in both the donor and acceptor compartments was determined with use of LC/MS. Liquid chromatography was performed using an ExionLC AD pump and autosampler from Sciex (Framingham, MA, USA). […] The mobile phase flow rate was 300 µL min^−1. The column Synergi Fusion-RP from Phenomenex (Torrance, CA, USA) was used and was kept at 40 °C during the analysis.

Stability in rat plasma = assay type: in vitro ADME; settings: rat plasma, 37 °C
Method: Compounds were prepared as 1.6 mg mL^−1 stock solutions in methanol. Then, 20 µL of stock solution was added to 1000 µL of rat plasma (BioIVT, Cat. No. RAT00PLLH-0102307), maintained at 37 °C. Aliquots (50 µL) withdrawn at 0, 8, and 24 h were analyzed by HPLC. An aliquot of plasma was extracted with methanol (450 µL) containing an internal standard, and the solution was vortexed (20 s) and centrifuged at 13 500 rpm for 10 min. The supernatant was transferred to an autosampler vial, and 10 µL was injected into an LC-MS system. The samples were analyzed using an Agilent 6230 TOF LC/MS. Samples were separated on a Waters ACQUITY UPLC CSH Phenyl-Hexyl column (100 × 2.1, 130 Å, 1.7 µm) at a flow rate of 0.3 mL min^−1. […]. The temperature, the flow rate of the nitrogen drying gas, the pressure of the nitrogen nebulizing gas, and the flow rate of the sheath gas were set at 325 °C, 10 L min^−1, 40 psi, […], and 11 L min^−1, respectively. Results are represented as a percentage of the compound remaining in spiked plasma.

Q: Which “Stability in primary rat hepatocytes Clint” value ([1]; 3 µM, 0.5 × 10^6 cells mL^−1) does the source give for CCON=C(C)C1CCC2C3CC=C4CC(OC(=O)CCCC(=O)O)CCC4(C)C3CCC12C (stereo not drawn) [Compound 12, 20-Oxo-pregn-5-en-3β-yl hemiglutarate O-ethyloxime] here?
A: 19.1 µL/min/mg

Q: And the half-life at 3 µM ([1]; male, Wistar, rat, hepatocytes)?
A: 1.21 h

Q: What about the “Metabolic stability in rat hepatocytes” value ([1]; rat, hepatocytes) of the same compound?
A: moderate metabolic stability

Q: And the “PAMPA permeability Retention (mass retention)” value (in vitro; 5 h, 100 µM)?
A: 97%

Q: And the Papp at 5 h, 100 µM (in vitro; PAMPA)?
A: 3.89 ×10⁻⁶ cm/s

Q: What about the “Stability in rat plasma (% remaining) 8 h” value (Stability in rat plasma; 8 h) of the same compound?
A: 85.6 ± 1.0 % remaining and 86 ± 1 % remaining

Q: And the “Stability in rat plasma (% remaining) 24 h” value (Stability in rat plasma; 24 h)?
A: 59.6 ± 0.7 % remaining and 60 ± 1 % remaining
